In assay [1] the target is Sodium/hydrogen exchanger 3 (Homo sapiens, UniProt P48764). Description: Affinity On-target Cellular interaction: (Inhibition of Na+/H+ exchange, detection of fluorescence changes in acridine orange pH indicator, mouse fibroblast L cell line) EUB0002709aCl SLC9A3. It counts as functional, cell-based, LAP1. Also noted: mode of action Inhibitor, recommended concentration 1 uM.

Assay [2] has as its target T1, Dipeptidyl peptidase 2 (Homo sapiens, UniProt Q9UHL4). Description: (§1) Affinity On-target Cellular interaction: (inhibition of fluorogenic substrate cleavage, U937 cell) EUB0002750aCl DPP7. It counts as functional, cell-based, U-937. Also noted: mode of action Inhibitor, recommended concentration 1 uM.
The target of assay [3] is T1, Dipeptidyl peptidase 2. Described as §1. The assay is classed as functional, cell-based, U-937. Also noted: mode of action Inhibitor, recommended concentration 1 uM. This is another data set of the same source.
For assay [4], the target named is Sodium- and chloride-dependent glycine transporter 1 (Homo sapiens, UniProt P48067). Briefly: Affinity On-target Cellular interaction: (Inhibition of [14C]glycine uptake in human neuroblastoma cells transfected with SLC6A9) EUB0002626aCl SLC6A9. Also noted: mode of action Inhibitor, recommended concentration 1 uM. The assay is classed as functional, cell-based, BE(2)-C.

Assay [5] has as its target T2, Monocarboxylate transporter 4 (Homo sapiens, UniProt O15427). Briefly: (§2) Affinity On-target Cellular interaction: (Inhibition of lactate import in MDA-MB-231 cells) EUB0002761a SLC16A3. The assay is classed as functional, cell-based. Also noted: mode of action Inhibitor, recommended concentration 1 uM.
For assay [6], the target named is T2, Monocarboxylate transporter 4. The assay is described as §2. The assay is classed as functional, cell-based. Also noted: mode of action Inhibitor, recommended concentration 1 uM. This is another data set of the same source.
The target in assay [7] is Na(+)/citrate cotransporter (Homo sapiens, UniProt Q86YT5). Briefly: Affinity On-target Cellular interaction: (Radiolabelled uptake assay with […], HEK293 cells) EUB0002721a SLC13A5. The assay is classed as functional, cell-based. Also noted: mode of action Inhibitor, recommended concentration 1 uM.
Assay [8] concerns the target Monocarboxylate transporter 8 (Homo sapiens, UniProt P36021). Briefly: Affinity On-target Cellular interaction: (Inhibition of radiolabelled [125I]T3 uptake by target expressed in MDCK1 cells) EUB0002712a SLC16A2. Also noted: mode of action Inhibitor, recommended concentration 1 uM. The assay is classed as functional, cell-based, MDCK-I.
The target of assay [9] is T3, Acid ceramidase (Homo sapiens, UniProt Q13510). Description: Affinity On-target Cellular interaction: (Inhibition of ASAH1 in A375 cell lysates overexpressing ASAH1) EUB0002722a ASAH1. It counts as functional, subcellular, A-375. Also noted: mode of action Inhibitor, recommended concentration 1 uM.
The target in assay [10] is Poly [ADP-ribose] polymerase 1 (Homo sapiens, UniProt P09874). Briefly: Affinity On-target Cellular interaction: (Inhibition of H2O2 induced PAR formation in Capan-1 cells) EUB0002633aCl PARP1. It counts as functional, cell-based. Also noted: mode of action Inhibitor, recommended concentration 1 uM.
In the next assay the target is Zinc transporter SLC39A7 (Homo sapiens, UniProt Q92504). Briefly: Affinity On-target Cellular interaction: (HES-LUC reporter gene assay, U2OS cells) EUB0002669a SLC39A7. The assay is classed as functional, cell-based. Also noted: mode of action Inhibitor, recommended concentration 1 uM. A general note: A reporter such as luciferase makes a cellular process visible.

For assay [11], the target named is Monoacylglycerol lipase ABHD6 (Homo sapiens, UniProt Q9BV23).
Assay [12] deals with Sodium/hydrogen exchanger 1 (Homo sapiens, UniProt P19634). Description: Affinity On-target Cellular interaction: ([Na+]uptake assay, PS-120 fibroblasts) EUB0002781aCl SLC9A1. The assay is classed as functional, cell-based, PS120. Also noted: mode of action Inhibitor, recommended concentration 1 uM.
For assay [13], the target named is T3, Acid ceramidase. Description: Affinity On-target Cellular interaction: (Inhibition of ASAH1 in A375 cell lysates overexpressing ASAH1) EUB0002723a ASAH1. It counts as functional, subcellular, A-375. Also noted: mode of action Inhibitor, recommended concentration 1 uM.

T2 sequence (O15427 whole entry): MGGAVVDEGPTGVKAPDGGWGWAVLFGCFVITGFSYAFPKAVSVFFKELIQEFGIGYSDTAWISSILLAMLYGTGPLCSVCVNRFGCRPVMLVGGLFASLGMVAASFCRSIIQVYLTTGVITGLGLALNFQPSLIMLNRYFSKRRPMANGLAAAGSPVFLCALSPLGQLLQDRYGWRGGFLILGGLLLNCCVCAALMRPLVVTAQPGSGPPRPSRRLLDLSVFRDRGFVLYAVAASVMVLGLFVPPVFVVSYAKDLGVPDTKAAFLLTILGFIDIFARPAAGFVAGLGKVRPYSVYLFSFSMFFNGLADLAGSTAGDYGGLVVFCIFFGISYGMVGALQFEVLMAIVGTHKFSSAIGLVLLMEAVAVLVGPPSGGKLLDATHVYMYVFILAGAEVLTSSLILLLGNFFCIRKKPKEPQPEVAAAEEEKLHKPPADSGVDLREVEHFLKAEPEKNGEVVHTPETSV
T3 sequence (Q13510 22-142 limits assumed): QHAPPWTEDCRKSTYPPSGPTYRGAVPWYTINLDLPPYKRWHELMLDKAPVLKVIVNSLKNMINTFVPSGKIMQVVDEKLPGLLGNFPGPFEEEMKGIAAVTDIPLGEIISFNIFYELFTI
T3 sequence (Q13510 143-395 limits assumed): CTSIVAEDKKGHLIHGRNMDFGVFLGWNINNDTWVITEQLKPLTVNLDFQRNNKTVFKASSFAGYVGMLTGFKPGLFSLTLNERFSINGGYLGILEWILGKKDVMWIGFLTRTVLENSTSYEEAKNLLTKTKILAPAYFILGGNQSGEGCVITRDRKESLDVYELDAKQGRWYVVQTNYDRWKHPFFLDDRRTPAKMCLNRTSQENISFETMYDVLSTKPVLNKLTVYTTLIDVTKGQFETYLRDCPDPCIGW
Sequence of Sodium/hydrogen exchanger 1 (P19634 whole entry): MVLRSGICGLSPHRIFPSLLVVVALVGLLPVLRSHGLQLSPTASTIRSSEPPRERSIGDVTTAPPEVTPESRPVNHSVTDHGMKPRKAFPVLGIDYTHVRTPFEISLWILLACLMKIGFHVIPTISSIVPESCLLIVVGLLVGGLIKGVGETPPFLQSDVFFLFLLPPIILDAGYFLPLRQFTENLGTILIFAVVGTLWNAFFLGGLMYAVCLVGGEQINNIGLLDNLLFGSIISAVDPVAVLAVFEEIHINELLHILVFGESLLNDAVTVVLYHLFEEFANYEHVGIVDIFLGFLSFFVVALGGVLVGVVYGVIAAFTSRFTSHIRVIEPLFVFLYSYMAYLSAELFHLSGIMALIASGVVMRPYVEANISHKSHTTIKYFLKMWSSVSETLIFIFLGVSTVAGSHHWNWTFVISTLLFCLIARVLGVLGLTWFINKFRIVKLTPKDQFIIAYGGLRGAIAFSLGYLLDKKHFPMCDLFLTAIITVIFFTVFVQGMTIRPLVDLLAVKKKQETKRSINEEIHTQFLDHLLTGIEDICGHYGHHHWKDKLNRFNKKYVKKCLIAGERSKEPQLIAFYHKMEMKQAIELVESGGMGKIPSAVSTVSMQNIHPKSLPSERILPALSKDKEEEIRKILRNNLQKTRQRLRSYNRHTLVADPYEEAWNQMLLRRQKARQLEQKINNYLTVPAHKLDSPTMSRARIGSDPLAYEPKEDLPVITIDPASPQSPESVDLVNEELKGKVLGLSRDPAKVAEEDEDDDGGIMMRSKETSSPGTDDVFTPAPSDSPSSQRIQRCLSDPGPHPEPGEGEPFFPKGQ
Sequence of Monoacylglycerol lipase ABHD6 (Q9BV23 whole entry): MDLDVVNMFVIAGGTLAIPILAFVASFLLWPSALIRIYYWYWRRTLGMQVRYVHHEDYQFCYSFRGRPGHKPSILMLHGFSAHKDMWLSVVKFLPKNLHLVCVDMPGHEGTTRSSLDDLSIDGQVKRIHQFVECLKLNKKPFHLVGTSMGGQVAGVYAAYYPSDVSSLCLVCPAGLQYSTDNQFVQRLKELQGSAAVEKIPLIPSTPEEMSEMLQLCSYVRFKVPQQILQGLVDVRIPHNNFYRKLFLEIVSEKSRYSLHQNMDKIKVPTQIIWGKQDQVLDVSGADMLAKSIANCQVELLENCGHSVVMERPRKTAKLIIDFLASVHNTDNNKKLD
Sequence of Sodium/hydrogen exchanger 3 (P48764 whole entry): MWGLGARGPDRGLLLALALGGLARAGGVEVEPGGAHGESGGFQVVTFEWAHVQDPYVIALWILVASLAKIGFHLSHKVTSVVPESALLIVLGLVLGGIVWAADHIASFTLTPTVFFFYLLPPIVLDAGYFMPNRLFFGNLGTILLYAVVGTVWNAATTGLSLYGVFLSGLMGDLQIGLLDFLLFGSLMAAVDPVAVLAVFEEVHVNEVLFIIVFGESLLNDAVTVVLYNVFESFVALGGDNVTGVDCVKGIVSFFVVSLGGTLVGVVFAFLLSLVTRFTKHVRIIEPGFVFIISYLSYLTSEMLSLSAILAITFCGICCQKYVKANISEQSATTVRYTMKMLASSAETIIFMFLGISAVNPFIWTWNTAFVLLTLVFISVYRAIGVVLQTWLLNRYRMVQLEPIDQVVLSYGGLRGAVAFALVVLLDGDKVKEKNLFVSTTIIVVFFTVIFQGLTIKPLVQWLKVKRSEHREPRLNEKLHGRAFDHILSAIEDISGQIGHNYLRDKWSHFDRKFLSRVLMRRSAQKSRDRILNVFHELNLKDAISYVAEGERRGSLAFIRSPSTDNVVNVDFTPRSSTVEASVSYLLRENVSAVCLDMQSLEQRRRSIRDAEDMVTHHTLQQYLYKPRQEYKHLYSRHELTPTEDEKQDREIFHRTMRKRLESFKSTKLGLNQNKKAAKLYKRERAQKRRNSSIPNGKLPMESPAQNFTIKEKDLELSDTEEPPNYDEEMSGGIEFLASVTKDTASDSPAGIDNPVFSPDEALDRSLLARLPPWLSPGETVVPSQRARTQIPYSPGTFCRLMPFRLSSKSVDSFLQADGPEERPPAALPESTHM
Sequence of Poly [ADP-ribose] polymerase 1 (P09874 whole entry): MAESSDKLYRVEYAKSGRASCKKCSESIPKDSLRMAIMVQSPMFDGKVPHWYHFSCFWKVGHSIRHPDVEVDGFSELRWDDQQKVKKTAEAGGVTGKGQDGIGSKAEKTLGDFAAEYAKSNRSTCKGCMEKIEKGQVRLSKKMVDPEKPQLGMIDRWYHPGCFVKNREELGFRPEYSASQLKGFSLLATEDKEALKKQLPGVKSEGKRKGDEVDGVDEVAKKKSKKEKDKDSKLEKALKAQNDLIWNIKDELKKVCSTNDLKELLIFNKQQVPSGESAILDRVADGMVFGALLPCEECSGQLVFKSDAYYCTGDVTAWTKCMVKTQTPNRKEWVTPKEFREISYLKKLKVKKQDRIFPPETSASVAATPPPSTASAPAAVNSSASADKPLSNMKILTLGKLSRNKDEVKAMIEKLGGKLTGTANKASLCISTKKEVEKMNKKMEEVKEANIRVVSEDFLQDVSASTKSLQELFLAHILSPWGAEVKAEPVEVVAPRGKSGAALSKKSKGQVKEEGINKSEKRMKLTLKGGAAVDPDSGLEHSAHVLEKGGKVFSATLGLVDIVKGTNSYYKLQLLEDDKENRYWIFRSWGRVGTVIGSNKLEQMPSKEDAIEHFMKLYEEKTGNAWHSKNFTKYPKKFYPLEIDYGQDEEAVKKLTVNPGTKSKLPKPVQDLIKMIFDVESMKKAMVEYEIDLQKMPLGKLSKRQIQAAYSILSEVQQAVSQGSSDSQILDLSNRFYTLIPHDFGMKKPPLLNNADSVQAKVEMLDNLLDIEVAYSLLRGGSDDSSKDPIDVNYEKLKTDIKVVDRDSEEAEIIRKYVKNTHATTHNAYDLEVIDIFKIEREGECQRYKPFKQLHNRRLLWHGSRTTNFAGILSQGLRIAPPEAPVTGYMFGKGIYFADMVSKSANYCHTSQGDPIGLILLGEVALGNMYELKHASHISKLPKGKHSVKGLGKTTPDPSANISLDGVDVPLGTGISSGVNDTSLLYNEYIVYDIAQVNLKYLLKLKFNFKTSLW
Sequence of Monocarboxylate transporter 8 (P36021 whole entry): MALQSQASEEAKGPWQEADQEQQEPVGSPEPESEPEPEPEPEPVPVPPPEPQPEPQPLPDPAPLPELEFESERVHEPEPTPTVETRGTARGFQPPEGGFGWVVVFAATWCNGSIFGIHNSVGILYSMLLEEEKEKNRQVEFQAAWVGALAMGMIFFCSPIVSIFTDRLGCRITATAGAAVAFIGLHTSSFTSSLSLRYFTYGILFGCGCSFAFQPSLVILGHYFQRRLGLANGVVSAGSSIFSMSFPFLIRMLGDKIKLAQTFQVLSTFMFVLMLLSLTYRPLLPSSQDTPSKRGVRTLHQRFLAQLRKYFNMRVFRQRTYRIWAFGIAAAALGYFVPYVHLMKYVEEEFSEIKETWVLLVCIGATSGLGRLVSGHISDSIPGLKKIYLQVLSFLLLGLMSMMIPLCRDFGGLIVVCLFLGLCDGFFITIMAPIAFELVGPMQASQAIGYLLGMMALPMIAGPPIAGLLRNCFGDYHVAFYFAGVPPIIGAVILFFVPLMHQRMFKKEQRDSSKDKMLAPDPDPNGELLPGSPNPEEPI
Sequence of Zinc transporter SLC39A7 (Q92504 whole entry): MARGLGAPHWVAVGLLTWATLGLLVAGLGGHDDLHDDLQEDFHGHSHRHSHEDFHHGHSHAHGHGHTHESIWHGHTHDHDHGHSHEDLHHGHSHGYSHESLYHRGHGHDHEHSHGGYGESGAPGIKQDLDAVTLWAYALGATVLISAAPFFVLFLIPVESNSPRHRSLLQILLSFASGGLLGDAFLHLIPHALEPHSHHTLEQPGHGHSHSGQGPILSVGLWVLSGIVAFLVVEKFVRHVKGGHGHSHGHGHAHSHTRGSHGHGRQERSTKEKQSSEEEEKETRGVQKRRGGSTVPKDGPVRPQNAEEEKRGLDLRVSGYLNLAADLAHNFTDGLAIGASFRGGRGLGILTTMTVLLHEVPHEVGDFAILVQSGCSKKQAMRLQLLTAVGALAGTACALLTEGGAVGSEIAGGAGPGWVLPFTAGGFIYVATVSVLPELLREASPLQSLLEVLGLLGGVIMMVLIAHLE

Turning to `CC(=Cc1cc(C)ccc1C=C(C)C(=O)NC(=N)N)C(=O)N=C(N)N`, in assay [1], the half-inhibitory concentration (IC50) was found to be 20 nM. This lies in the double-digit nanomolar range.

`N[C@@H](CCNCc1ccc(Cl)cc1)C(=O)N1CCCCC1`: the values for the concentration for half-maximal inhibition (IC50) at Dipeptidyl peptidase 2 [2] and against Dipeptidyl peptidase 2 [3] were 0.21 nM and 0.14 nM, respectively.

Take `CN(CCOc1ccc(-c2ccc3c(c2)OCO3)cc1C(C)(C)C)CC(=O)O`: it took 15.8 nM to reach half-maximal inhibition in [4] (IC50).

As to `CC(C)(OCc1cc(-c2cccc(OC3CC3)c2)n(-c2ccccc2Cl)n1)C(=O)O`, the IC50 in [5] worked out at 19 nM; in [6] it was 8.6 nM.

`O=C(NCc1ccc(Cl)cc1)C1CCN(S(=O)(=O)c2cc(Cl)cc(Cl)c2)CC1` gave an IC50 in assay [7] greater than 100000 nM.

Regarding `COc1cc([C@@H]2Oc3c(O)cc([C@H]4Oc5cc(O)cc(O)c5C(=O)[C@@H]4O)cc3[C@H]2CO)ccc1O` [SILICRISTIN A], in assay [8], half-maximal inhibition (IC50) was put at 110 nM.

Turning to `CCCCCCCCCCCCC/C=C/[C@@H](O)[C@H](CO)NC(=O)CBr`, the affinity at Acid ceramidase [9] corresponds to a Ki of 29.7 nM.

`CNCc1ccc(-c2cc3cc(F)cc(C(N)=O)c3o2)cc1` returned an IC50 in assay [10] of 69.9 nM.

Turning to `O=C1Nc2ccccc2C2(CCN(CC(Cc3ccccc3)Nc3nc4ccc(F)cc4s3)CC2)N1` (centres undefined), half-maximal inhibition at Zinc transporter SLC39A7 (IC50) required 130 nM.

Regarding `O=C(c1cccc(-c2ccc(-c3cn(C(=O)N4CCCCC4c4ccccc4)nn3)cc2)c1)N1CCCCC1` (centres undefined), it took 0.21 nM to reach half-maximal inhibition in [11] (IC50).

On to `N=C(N)NC(=O)c1cnn(-c2cccc3ncccc23)c1C1CC1`, for which the IC50 in assay [12] was found to be 14 nM.

As to `CCCCCCCCCCCCC/C=C/[C@@H](O)[C@H](CO)NC(=O)CCl`, on Acid ceramidase [13], the inhibitory constant (Ki) came out at 40.2 nM. This counts as double-digit nanomolar.

Broadly, the IC50 is the concentration at which inhibition is half-maximal. A low value points to inhibition by little substance. For orientation: Ki means the dissociation constant of the complex between target and ligand, obtained from inhibition or displacement. Read a high Ki as lower affinity.

Values taken from ChEMBL document CHEMBL5723379, “Affinity On-target Cellular Literature for EUbOPEN Chemogenomic Library” (2024).
